Measurements reported in the CheMixHub ionic liquid set.
Where “and” joins values, the source holds several entries; their conditions need not be identical. Equal entries are not always repeated.

Test: xn = mol fraction of the nth substance listed

CC[N+](CC)(CC)CC.O=[N+]([O-])[O-] + CC[NH3+].O=[N+]([O-])[O-]
101 kPa, frequency 0.00293 MHz
Conditions	electrical conductivity [S/m]
293.15 K, x1 = 0.15	1.01
303.15 K, x1 = 0.0501	2.13
303.15 K, x1 = 0.15	1.42
303.15 K, x1 = 0.35	0.565
308.15 K, x1 = 0.2001	1.34
313.15 K, x1 = 0.1	2.33
318.15 K, x1 = 0.2995	1.04
323.15 K, x1 = 0.15	2.46

101 kPa
Conditions	viscosity [mPa·s]
293.15 K, x1 = 0.15	74.1
303.15 K, x1 = 0.0501	35.5
303.15 K, x1 = 0.15	50
303.15 K, x1 = 0.35	131
308.15 K, x1 = 0.2001	50.4
313.15 K, x1 = 0.1	30.3
318.15 K, x1 = 0.2995	50.9
323.15 K, x1 = 0.15	26.2
328.15 K, x1 = 0.2001	26.6
328.15 K, x1 = 0.2567	32.4
328.15 K, x1 = 0.35	48.3
333.15 K, x1 = 0.15	20.1
343.15 K, x1 = 0.15	15.7
348.15 K, x1 = 0.2001	16
348.15 K, x1 = 0.35	26.3
353.15 K, x1 = 0.1	11
353.15 K, x1 = 0.35	23.4

F[P-](F)(F)(F)(F)F.[Li+] + CC[n+]1ccn(C)c1.O=S(=O)([O-])C(F)(F)F
electrical conductivity [S/m], 101 kPa
Conditions	x1 = 0.007746	x1 = 0.01537	x2 = 0.9673	x2 = 0.9746
288.15 K	0.614	0.559	–	0.532
298.15 K	0.898	0.816	0.786	0.785
333.15 K	2.3	2.08	2.08	2.02

C[N+]1(CCOCCOCCOCC[N+]2(C)CCCC2)CCCC1.O=S(=O)([N-]S(=O)(=O)C(F)(F)F)C(F)(F)F.O=S(=O)([N-]S(=O)(=O)C(F)(F)F)C(F)(F)F + CC[n+]1ccn(C)c1.N#C[N-]C#N + O=S(=O)([N-]S(=O)(=O)C(F)(F)F)C(F)(F)F.[Li+]
100 kPa, x1 = 0.1489, x2 = 0.7484
Conditions	electrical conductivity [S/m]
298 K	0.698
303 K	0.827
313 K	1.1
323 K	1.43
333 K	1.81
343 K	2.21

CCCC[n+]1ccn(C)c1.O=S(=O)([O-])C(F)(F)F + CCCCO
viscosity [mPa·s], 100 kPa
Conditions	x1 = 0.1091	x1 = 0.2147	x1 = 0.2908	x1 = 0.4008	x1 = 0.5123	x1 = 0.5928	x1 = 0.6991	x1 = 0.8056	x1 = 0.9078	x1 = 1
298.15 K	3.69	6.2	8.9	14.2	20.6	26	35.4	47.6	63	82
303.15 K	3.24	5.1	6.9	11.5	17.5	22.6	30.2	38.8	51	67
308.15 K	2.87	4.45	6	11	15.3	19.3	25.4	32	40.6	53
313.15 K	2.55	3.93	5.3	9.5	13.6	16.9	21.6	27.2	34.7	43.7
318.15 K	2.27	3.48	4.68	7.9	11.2	13.8	17.8	22.6	28.5	36.3
323.15 K	2.04	3.11	4.17	7.2	10.1	12.4	15.8	19.3	24.4	30.6

F[P-](F)(F)(F)(F)F.[Li+] + CC[n+]1ccn(C)c1.O=S(=O)([N-]S(=O)(=O)C(F)(F)F)C(F)(F)F
electrical conductivity [S/m], 101 kPa
Conditions	x2 = 0.7088	x2 = 0.729	x2 = 0.8022	x2 = 0.8765	x2 = 0.9623
288.15 K	–	0.124	0.208	0.431	0.52
298.15 K	0.195	0.222	0.355	0.651	0.775
333.15 K	0.816	0.865	1.17	1.72	1.95

CC(C)O + CCCCCC[N+](CC)(CC)CC.O=S(=O)([N-]S(=O)(=O)C(F)(F)F)C(F)(F)F
100 kPa, x1 = 1
Conditions	viscosity [mPa·s]
298.15 K	2.05
303.15 K	1.73
308.15 K	1.49

CCOP(=O)([O-])OCC.CC[n+]1ccn(C)c1 + CS(C)=O
298.1 K, 100 kPa
Conditions	electrical conductivity
x1 = 0.025	0.31 S/m and 0.4 S/m
x1 = 0.407	0.4 S/m
x1 = 0.718	0.16 S/m
x1 = 1	0.09 S/m

CCCC[n+]1ccn(C)c1.O=S(=O)([O-])C(F)(F)F + CS(C)=O
viscosity [mPa·s], 100 kPa
Conditions	x1 = 0.1006	x1 = 0.2001	x1 = 0.3054	x1 = 0.4035	x1 = 0.502	x1 = 0.6085	x1 = 0.7001	x1 = 0.8088	x1 = 0.9004	x1 = 1
298.15 K	4	6.59	10.1	14.3	21.8	33	44	59.8	72.8	82.4
303.15 K	3.57	5.71	8.68	12.4	18.4	27.2	36	48.1	58.3	66.7
308.15 K	3.18	–	7.55	10.5	15.5	22.7	29.7	39.6	47.4	52.9
313.15 K	2.88	4.46	6.61	9.22	13.3	19.2	25	32.8	39	43.7
318.15 K	2.61	3.98	5.83	8.08	11.5	16.4	21.2	27.5	32.6	36.3
323.15 K	2.38	3.59	5.2	7.15	10.1	14.2	18.1	23.4	27.5	30.6

CCCC[n+]1ccn(C)c1.COP(=O)([O-])OC + CO
viscosity [mPa·s], 101 kPa
Conditions	293.15 K	308.15 K	313.15 K	318.15 K
x2 = 0.404	–	68.7	–	44.37
x2 = 0.8	7.184	–	4.401	–

C=CCn1cc[n+](C)c1.[I-] + II
Conditions	electrical conductivity [S/m]
298 K, 101.3 kPa, x1 = 0.25	4.21
